According to publication PMC5322940 (Cell, 2016):

What was measured:
[1] = test system: hCB1 Phe170^2.57Ala or Phe174^2.61Ala; test: Functional studies in mutant hCB1-CHO cells, Phe170Ala or Phe174Ala; type: cell-based, human
hCB1R [2] = target: T1, hCB1R (Homo sapiens, UniProt P21554); type: cell-based
hCB1 WT receptor = hCB1 WT receptor (Homo sapiens, UniProt P21554); test: biochemical; type: binding
CB1 [3] = target: CB1 (Mus musculus, UniProt P47746); test: [35S]GTPγS binding to CB1 in C57 mouse cerebellum membranes; type: biochemical
CB1 (Mus musculus, UniProt P47746), sequence (P47746 whole entry): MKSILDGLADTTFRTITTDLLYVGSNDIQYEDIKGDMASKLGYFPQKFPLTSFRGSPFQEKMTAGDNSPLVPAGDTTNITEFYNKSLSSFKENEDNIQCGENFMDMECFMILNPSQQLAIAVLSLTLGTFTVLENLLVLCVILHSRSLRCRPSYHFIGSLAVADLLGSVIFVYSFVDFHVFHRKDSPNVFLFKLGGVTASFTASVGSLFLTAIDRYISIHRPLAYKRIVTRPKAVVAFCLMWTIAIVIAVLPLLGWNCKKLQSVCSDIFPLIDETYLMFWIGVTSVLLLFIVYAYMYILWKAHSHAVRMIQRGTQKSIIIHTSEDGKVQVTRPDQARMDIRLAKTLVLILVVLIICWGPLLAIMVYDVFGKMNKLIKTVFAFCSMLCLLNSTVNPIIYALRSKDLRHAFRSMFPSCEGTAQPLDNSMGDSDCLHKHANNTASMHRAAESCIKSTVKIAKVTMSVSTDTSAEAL

hCB1R [4] = target: T1, hCB1R; type: cell-based; remark: listed apart in the source
WT CB1 = WT CB1 (Homo sapiens, UniProt P21554); test: Wash out experiment followed by [3H]-CP55,940 saturation binding
WT CB1, sequence (P21554 whole entry): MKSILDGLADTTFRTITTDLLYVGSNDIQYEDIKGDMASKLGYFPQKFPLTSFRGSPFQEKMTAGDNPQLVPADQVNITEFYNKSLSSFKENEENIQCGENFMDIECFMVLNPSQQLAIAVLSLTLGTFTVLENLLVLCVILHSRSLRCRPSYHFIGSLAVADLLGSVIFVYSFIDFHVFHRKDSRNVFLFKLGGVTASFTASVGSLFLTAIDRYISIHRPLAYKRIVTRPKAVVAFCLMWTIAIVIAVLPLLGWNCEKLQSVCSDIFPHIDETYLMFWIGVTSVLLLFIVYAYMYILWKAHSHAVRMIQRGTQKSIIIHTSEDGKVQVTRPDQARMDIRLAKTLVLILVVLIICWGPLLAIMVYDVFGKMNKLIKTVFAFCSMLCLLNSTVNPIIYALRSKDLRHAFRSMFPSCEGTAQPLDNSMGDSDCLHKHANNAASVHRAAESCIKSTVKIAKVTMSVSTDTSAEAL

CB1 [5] = conditions: cited from earlier work
[6] = test system: hCB1 Phe170^2.57Trp or Phe174^2.61Trp; test: Functional studies in mutant hCB1-CHO cells, Phe170Trp or Phe174Trp; type: cell-based, human; conditions: Phe170Ala/Trp or Phe174Ala/Trp vs WT
[7] = agonist, mouse cerebellum, mean ± S.E.M.

T1 sequence (P21554 whole entry): as above
hCB1 WT receptor, sequence (P21554 whole entry): as above

## Cc1c(C(=O)NN2CCCCC2)nn(-c2ccc(Cl)cc2Cl)c1-c1ccc(C#CCCO[N+](=O)[O-])cc1 [AM6538, 4-(4-(1-(2,4-dichlorophenyl)-4-methyl-3-(piperidin-1-ylcarbamoyl)-1H-pyrazol-5-yl)phenyl)but-3-yn-1-yl nitrate]
[1]
  Effect of mutation on antagonist functional affinity: dramatically reduced functional affinity
hCB1R [2]
  Mode of antagonism of CB1-mediated inhibition of adenylyl cyclase activity: competitive antagonist
hCB1 WT receptor
  Ki: 0.0034 ± 0.001 µM
  Percentage of remaining binding (Bmax) of [3H]-CP55,940: ~ 30%
CB1 [3]
  Mode of antagonism of [35S]-GTPγS binding: Competitive antagonism was confirmed
hCB1R [4]
  Mode of antagonism of β-arrestin2 recruitment: competitive antagonist
WT CB1
  Effect on subsequent [3H]-CP55,940 binding after pretreatment and washout: wash-resistant binding

## Cc1c(C(=O)NN2CCS(=O)(=O)CC2)nn(-c2ccc(Cl)cc2Cl)c1-c1ccc(C#CCCC#N)cc1 [AM6545]
CB1 [5]; ref Tam et al., 2010
  Affinity and mode of action at CB1: high affinity CB1 neutral antagonist

## CCCCCCC(C)(C)c1ccc([C@@H]2C[C@H](O)CC[C@H]2CCCO)c(O)c1 [CP55,940]
[1]; Phe170Ala or Phe174Ala vs WT
  Effect of mutation on agonist potency: neither mutation alters the potency
CB1 [3]; [7]
  EC50: 0.063 ± 0.0055 µM
  Emax: 2.40 ± 0.04 fold over baseline
[6]
  Effect of mutation on agonist potency: do not alter the potency

## C[C@H](NC(=O)C(C)(C)Oc1ccc(C(F)(F)F)cn1)[C@@H](Cc1ccc(Cl)cc1)c1cccc(C#N)c1 [Taranabant]
CB1 [5]; among rimonabant, otenabant and taranabant, ref Table S2
  Affinity with CB1: highest affinity

## Cc1c(C(=O)NN2CCCCC2)nn(-c2ccc(Cl)cc2Cl)c1-c1ccc(Cl)cc1 [rimonabant]
[1]
  Effect of mutation on antagonist functional affinity: dramatically reduced functional affinity
